Data reported in patent publication US20260207605A1, “KRAS G12D INHIBITORS AND USES THEREOF” (Abbisko Therapeutics Co., Ltd., priority 2022, published 2026).
Like-named read-outs stand apart in the source and are kept apart here.

Key:
AsPC-1 = assay: Anti-proliferative 2D CTG assay, AsPC-1; type: cell-based; conditions: AsPC-1 cells, 4 days incubation, read-out: AsPC-1 cell IC50
AGS = assay: Anti-proliferative 2D CTG assay, AGS; type: cell-based; conditions: AGS cells, 4 days incubation, read-out: AGS cell IC50
KRAS^G12D/cRAF = KRAS^G12D/cRAF (Homo sapiens, UniProt P01116, G12D); assay: KRAS G12D/cRAF binding test (Alphalisa); conditions: His-tagged KRAS G12D with GMPPNP, GST-tagged cRAF
LS513 = assay: Anti-proliferative 2D CTG assay, LS513; type: cell-based; conditions: Homo sapiens, LS-513, 96 h, LS513 cells, 4 days incubation, read-out: LS513 cell IC50
Procedure: (§1) 1.1 Day 0 Cell Culture and Plating
(§2) Cells in a logarithmic growth phase were harvested and the cells were counted by using a […]. Cell viability was tested by using a trypan blue exclusion method to ensure that cell viability was above 90%. The cell concentration was adjusted to the desired final density, and 90 μL of cell suspension was added to a 96-well plate, then the cells were incubated overnight at 37° C., 5% CO2 and 95% humidity.
(§3) 10 μL PBS was added to each well of the TO plate containing cells. The CTG reagent was thawed and the plate was equilibrated to room temperature for 30 minutes. The CTG solution of 50 µL/well was added to each well. The cells were lysed by shaking on an orbital shaker for 5 minutes. The plate was left at room temperature for 20 minutes to stabilize the luminescence signal. The TO fluorescence signal value was read.
(§4) From the 10 mM stock solution, with a ratio of 1:5, 9-point serial dilutions were performed. The 10× medium containing the compound was transferred into corresponding wells of the 96 wells. The final maximum compound concentration was […] and the final DMSO concentration was 0.1%. The 96-well plate was placed in a 37° C. incubator and incubated for 4 days.
(§5) 50 μL/well of detection reagent (CTG) was added to the cells, and the signal was read in an Envision machine.
(§6) The percent inhibition (%) at each compound concentration was calculated from the signal in the HPE and ZPE control wells and the fluorescence signal in the individual compound wells included in each assay plate. […] The compound concentration required for inhibitory concentration at 50% (IC50) was determined using a four-parameter logarithmic dose-response equation by testing the concentration of the compound and the inhibition percentage value. The endpoint value (IC50) of the reference compound was assessed in each experiment as a quality control measure. If the endpoint value is within three times the expected value, the experiment may be considered acceptable.

HPAC = assay: Anti-proliferative 2D CTG assay, HPAC; type: cell-based; conditions: Homo sapiens, 96 h, HPAC cells, 4 days incubation, read-out: HPAC cell IC50
Procedure: as §1, §2, §3, §4, §5, §6

[1] = Pharmacokinetic experiment in mice (single PO or IV administration); conditions: male, ICR, mouse, plasma
Text: (§7) The purpose of this trial is to study the pharmacokinetic behavior of some compounds of the present invention, and the administration method is: single oral administration (PO) or intravenous administration (IV) to ICR mice.
(§8) ICR mice male N=9 original source: Shanghai Sippr-Bk Lab Animal Co., Ltd.
(§9) The compounds were weighed and dissolved in the corresponding solution (0.5% CMC+1% tween water solution or 10% PG+10% Solutol®+80% pH3 citrate buffer). The mixture was then shaken well and sonicated to prepare a 1 mg/mL stock solution. Nine mice were orally administered at a dose of 10 mg/kg or intravenously administered at a dose of 2 mg/kg after an overnight fast.
(§10) About 90 μL of blood was collected via the submandibular vein per time point, heparin sodium anticoagulant was added, the sample was placed on ice after collection, and plasma was centrifuged within 1 hour (centrifugation conditions: 8,000 rpm, 6 minutes, 2-8° C.). The blood collection timepoints were 0, 0.25, 0.5, 1, 2, 4, 6, 8 and 24 h. The samples were stored in a −20° C. refrigerator.
(§11) The plasma sample was 40 μL, 160 μL of ice-cold acetonitrile containing internal standard was added, vortexed for 3 minutes, and centrifuged at 11,000 rpm for 5 minutes. 100 μL of the supernatant was taken and added to 100 μL of water, 5 μL of the sample was taken and injected into LC/MS/MS for analysis.

in vivo = conditions: male, ICR, mouse
Text: as §7, §8, §9, §10, §11

Sequence of KRAS^G12D/cRAF (P01116 1-188 isoform P01116-2 G12D): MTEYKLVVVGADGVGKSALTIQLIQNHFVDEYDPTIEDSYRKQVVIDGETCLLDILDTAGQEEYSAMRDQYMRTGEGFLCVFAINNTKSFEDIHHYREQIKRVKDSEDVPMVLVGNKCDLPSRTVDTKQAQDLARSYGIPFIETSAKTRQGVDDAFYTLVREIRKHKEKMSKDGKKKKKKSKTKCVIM

SMILES | IC50 (AsPC-1; Homo sapiens, ASPC1, 96 h) [nM] | IC50 (AGS; Homo sapiens, AGS, 96 h) [nM] | IC50 (KRAS^G12D/cRAF) [nM] | IC50 (LS513) [nM] | IC50 (HPAC) [nM] | AUC ([1]; iv, 2 mg/kg) [ng·h/mL] | Cmax ([1]; iv, 2 mg/kg) [ng/mL] | half-life ([1]; iv, 2 mg/kg) [h] | AUC ([1]; po, 10 mg/kg) [ng·h/mL] | Cmax ([1]; po, 10 mg/kg) [ng/mL] | bioavailability ([1]; po, 10 mg/kg) [%] | half-life ([1]; po, 10 mg/kg) [h] | further results
[2H]C([2H])([2H])C([2H])([2H])[C@@]12CC[C@@H](CN(c3nc(OC[C@@]45CCCN4CC(=C(F)F)C5)nc4c(F)c(-c5cc(O)cc6ccc(F)c(C#C)c56)ncc34)C1)N2 [Example 47, 4-(2-(((S)-2-(difluoromethylene)tetrahydro-1H-pyrrolizin-7a (5H)-yl)methoxy)-4-((1R,5S)-1-(ethyl-d5)-3,8-diazabicyclo [3.2.1]octan-3-yl)-8-fluoropyrido [4,3-d]pyrimidin-7-yl)-5-ethynyl-6-fluoronaphthalen-2-ol] | 46.3 | 4.8 | 14.6 | 23.9 | 23.1 | – | – | – | – | – | – | – | –
[2H]C([2H])([2H])OC[C@@]12CC[C@@H](CN(c3nc(OC[C@@]45CCCN4C/C(=C\F)C5)nc4c(F)c(-c5cc(O)cc6ccc(F)c(C#C)c56)ncc34)C1)N2 [Example 62, 5-ethynyl-6-fluoro-4-(8-fluoro-2-(((S,Z)-2-(fluoromethylene)tetrahydro-1H-pyrrolizin-7a(5H)-yl)methoxy)-4-((1R,5S)-1-((methoxy-d3)methyl)-3,8-diazabicyclo[3.2.1]octan-3-yl)pyrido[4,3-d]pyrimidin-7-yl) naphthalen-2-ol] | – | – | 5.1 | 4.9 | 9.7 | 849 | 764 | 4.9 | 619 | 224 | 14.6 | 5.7 | IC50 (AsPC-1): 19.8 nM; IC50 (AGS): 1.5 nM
C#Cc1c(F)ccc2cc(O)cc(-c3ncc4c(N5C[C@@H]6CC[C@](C7CC7)(C5)N6)nc(OC[C@@]56CCCN5C/C(=C\F)C6)nc4c3F)c12 [Example 68, 4-(4-(1-cyclopropyl-3,8-diazabicyclo[3.2.1]octan-3-yl)-8-fluoro-2-(((S,Z)-2-(fluoromethylene)tetrahydro-1H-pyrrolizin-7a (5H)-yl)methoxy)pyrido[4,3-d]pyrimidin-7-yl)-5-ethynyl-6-fluoronaphthalen-2-ol] | 190 | 33.4 | 40.1 | 59.8 | 83.2 | 813 | 887 | 6.3 | 1070 | 300 | 26.4 | 5.6 | –
[2H]C([2H])([2H])C([2H])([2H])[C@@]12CC[C@@H](CN(c3nc(OC[C@@]45CCCN4C/C(=C\F)C5)nc4c(F)c(-c5cc(O)cc6ccc(F)c(C#C)c56)ncc34)C1)N2 [Example 71, 4-(4-((1R,5S)-1-(ethyl-d5)-3,8-diazabicyclo[3.2.1]octan-3-yl)-8-fluoro-2-(((S,Z)-2-(fluoromethylene)tetrahydro-1H-pyrrolizin-7a(5H)-yl)methoxy)pyrido[4,3-d]pyrimidin-7-yl)-5-ethynyl-6-fluoronaphthalen-2-ol] | 16.7 | 1.4 | 5.6 | 4.1 | 2.3 | 497 | 638 | 6.6 | 1020 | 461 | 41.1 | 4.9 | –
[2H]C([2H])([2H])C([2H])([2H])[C@@]12CC[C@@H](CN(c3nc(OC[C@@]45CCCN4C/C(=C\F)C5)nc4c(F)c(-c5cc(N)cc6ccc(F)c(C#C)c56)ncc34)C1)N2 [Example 137, 4-(4-((1R,5S)-1-(ethyl-d5)-3,8-diazabicyclo[3.2.1]octan-3-yl)-8-fluoro-2-(((S,Z)-2-(fluoromethylene)tetrahydro-1H-pyrrolizin-7a(5H)-yl)methoxy)pyrido [4,3-d]pyrimidin-7-yl)-5-ethynyl-6-fluoronaphthalen-2-amine] | 37.6 | 9.4 | 9.5 | 14.4 | 11.7 | 775 | 467 | 5.9 | 1880 | 298 | 48.6 | 2.9 | –
C#Cc1c(F)ccc2cc(N)cc(-c3ncc4c(N5C[C@H]6CC[C@@H](C5)N6)nc(OC[C@@]56CCCN5C/C(=C\F)C6)nc4c3F)c12 [Reference Compound 4, 4-(4-((1R,5S)-3,8-diazabicyclo [3.2.1]octan-3-yl)-8-fluoro-2-(((S,Z)-2-(fluoromethylene)tetrahydro-1H-pyrrolizin-7a(5H)-yl)methoxy)pyrido[4,3-d]pyrimidin-7-yl)-5-ethynyl-6-fluoronaphthalen-2-amine] | – | – | – | – | – | – | – | – | – | – | – | – | AUC (in vivo; iv, 2 mg/kg): 163 ng·h/mL; Cmax (in vivo; iv, 2 mg/kg): 104 ng/mL; half-life (in vivo; iv, 2 mg/kg): 8.4 h; AUC (in vivo; po, 10 mg/kg): 52.8 ng·h/mL; Cmax (in vivo; po, 10 mg/kg): 14.8 ng/mL; bioavailability (in vivo; po, 10 mg/kg): 6.5%; half-life (in vivo; po, 10 mg/kg): 4.6 h
